One assay has as its system uterus. The experiment in a line: Uterine contraction of an isolated uterus section in a Magnus tube. In kind it is cell-based. The note with it: Rattus norvegicus, ratio to contraction by oxytocin (1mU) taken as 100%; for activation at 1 µM: Dose 1x10^-6 M; for activation at 0.3 µM: Dose 3x10⁻⁷ M. Here is the method:
Test Example 1 (Uterine contraction)
An estrous rat (female, 150g) was used as test animals. The rat was sacrificed by bleeding and uterus was extirpated. A section of about 2.0cm was cut off and hung in a Magnus tube containing Tyrode solution or Beauvillain solution.
The section of uterus was held for about 5 minutes until it because stable and then contracted several times by administering oxytocin (1mU). After stable contraction was obtained, the section received test compounds. Contractions obtained by the test compounds were expressed as a ratio to the contraction by oxytocin which was taken as 100%. The results are shown in Table 1 (15-keto-PGE derivatives) and Table 2 (15-keto-PGF derivatives).

The test system of another assay is ileum. The experiment in a line: Intestinal contraction of an isolated ileum section in a Magnus tube (reference example). In kind it is cell-based, Wistar rat. Particulars: result in words. Here is the method:
Test Example 3 (Intestinal contraction ... Reference example)
A section was cut off from ileum of a Wistar rat (male) and hung in a Magnus tube. The section was contracted several times by administering acetylcholine (1x10⁻⁶ g/ml) and received test compounds after giving two or more contractions of the same intensity. Contractions obtained by the test compounds were expressed as a ratio to the contraction by acetylcholine (1x10⁻⁶ g/ml) which was taken as 100%, and EC₅₀ values were calculated as a concentrations for 50% contraction.

As for `CCCCC(F)(F)C(=O)CC[C@H]1[C@H](O)CC(=O)[C@@H]1C/C=C\CCCC(=O)O` [X-14], the activation at 1 µM in the assay with uterus (Table 1) is 81%.

Turning to `CCCCCCC(F)C(=O)CC[C@@H]1[C@@H](C/C=C\CCCC(=O)O)[C@@H](O)C[C@H]1O` (stereo partly drawn) [Y-6, 13,14-dihydro-15-keto-20-ethyl-16R,S-fluoro-PGF2α], the activation at 0.3 µM in the assay with uterus (Table 2) was found to be 92%. For `COCCCCCC(=O)CC[C@@H]1[C@@H](C/C=C\CCCC(=O)OC)[C@@H](O)C[C@H]1O` [Y-9, 13,14-dihydro-15-keto-20-methoxy-PGF2α methyl ester], the activation at 100 µM in the assay with uterus (Table 2, Dose 1x10⁻⁴ M) was determined as 50%. On to `COC(=O)CCC/C=C\C[C@@H]1[C@@H](CCC(=O)COc2cccc(C(F)(F)F)c2)[C@H](O)C[C@@H]1O` [Y-10, 13,14-dihydro-15-keto-16-desbutyl-16-m-trifluoromethylphenoxy-PGF2α methyl ester], for which, in the assay on uterus (Table 2), the activation at 0.3 µM is 92%. For the compound `CCCCC(F)C(=O)CC[C@H]1[C@H](C)CC(=O)[C@@H]1C/C=C\CCCC(=O)OCC` (stereo partly drawn) [X-7, 13,14-dihydro-15-keto-16R,S-fluoro-11-dehydroxy-11R-methyl-PGE2 ethyl ester], the activation at 100 µM with uterus (Table 1, Dose 1x10^-4 M) came out at 50%. Consider `CCCCC(F)(F)C(=O)CC[C@@H]1[C@@H](C/C=C\CCCC(=O)OC)[C@@H](O)C[C@H]1O` [Y-3, 13,14-dihydro-15-keto-16,16-difluoro-PGF2α methyl ester], for which, in the assay on uterus (Table 2, Dose 3x10⁻⁶ M), the activation at 3 µM amounted to 82%.

As for `CCCCCCC(F)C(=O)CC[C@@H]1[C@@H](C/C=C\CCCC(=O)OC)[C@@H](O)C[C@H]1C` (stereo partly drawn) [Y-8, 13,14-dihydro-15-keto-20-ethyl-16R,S-fluoro-11-dehydroxy-11R-methyl-PGF2α methyl ester], the activation at 100 µM in the assay on uterus (Table 2, Dose 1x10⁻⁴ M) came to 50%.

With `COCCCCC(C)(C)C(=O)CC[C@H]1[C@H](O)CC(=O)[C@@H]1C/C=C\CCCC(=O)OC` [X-8], the activation at 10 µM with uterus (Table 1, Dose 1x10^-5 M) worked out at 64%.

`CCCCC(F)C(=O)CC[C@H]1[C@H](O)CC(=O)[C@@H]1CC(=O)CCCCC(=O)OCC` (stereo partly shown) [X-1, 13,14-dihydro-6,15-diketo-16R,S-fluoro-PGE1 ethyl ester]: the activation at 100 µM in the assay with uterus (Table 1, Dose 1x10^-4 M) worked out at 86%. For the compound `CCCCC(F)C(=O)/C=C/[C@H]1[C@H](O)CC(=O)[C@@H]1C/C=C\CCCC(=O)OC` (stereo partly shown) [X-9], the activation at 10 µM with uterus (Table 1, Dose 1x10^-5 M) was 84%.

Take `CCCCC(F)C(=O)CC[C@H]1[C@H](C)CC(=O)[C@@H]1CC(=O)CCCCC(=O)OCC` (stereo partly drawn) [X-2, 13,14-dihydro-6,15-diketo-16R,S-fluoro-11-dehydroxy-11R-methyl-PGE1 ethyl ester]: the activation at 10 µM in the assay with uterus (Table 1, Dose 1x10^-5 M) worked out at 82%. Take `CCCCC(F)C(=O)CC[C@H]1[C@H](O)CC(=O)[C@@H]1C/C=C\CCCC(=O)OCC` (stereo partly shown) [X-6, 13,14-dihydro-15-keto-16R,S-fluoro-PGE2 ethyl ester]: the activation at 10 µM in the assay on uterus (Table 1, Dose 1x10^-5 M) worked out at 89%. Regarding `CCCCCC(F)C(=O)CC[C@@H]1[C@@H](C/C=C\CCCC(=O)OC)[C@@H](O)C[C@H]1O` (stereo partly drawn) [Y-5, 13,14-dihydro-15-keto-16R,S-fluoro-20-methyl-PGF2α methyl ester], the activation at 3 µM in the assay with uterus (Table 2, Dose 3x10⁻⁶ M) came to 42%. Take `CCCCC(F)C(=O)CC[C@@H]1[C@@H](C/C=C\CCCC(=O)O)[C@@H](O)C[C@H]1O` (stereo partly drawn) [Y-1, 13,14-dihydro-15-keto-16R,S-fluoro-PGF2α]: the activation at 0.3 µM in the assay on uterus (Table 2) was 89%. Turning to `CCCCC(F)C(=O)CC[C@@H]1[C@@H](C/C=C\CCCC(=O)OCC)[C@@H](O)C[C@H]1C` (stereo partly drawn) [Y-4, 13,14-dihydro-15-keto-16R,S-fluoro-11-dehydroxy-11R-methyl-PGF2α ethyl ester], the activation at 100 µM in the assay with uterus (Table 2, Dose 1x10⁻⁴ M) was 50%. Consider `CCCCC(O)C(=O)CC[C@H]1[C@H](O)CC(=O)[C@@H]1C/C=C\CCCC(=O)OCC` (stereo partly shown) [X-3, 13,14-dihydro-15-keto-16R,S-hydroxy-PGE2 ethyl ester], for which the activation at 100 µM in the assay with uterus (Table 1, Dose 1x10^-4 M) came to 50%. With `CCCCC(F)C(=O)CC[C@H]1[C@H](O)CC(=O)[C@@H]1CCCCCCC(=O)O` (stereo partly shown) [X-12], the activation at 1 µM in the assay on uterus (Table 1) was found to be 34%. As to `CCCCC(F)C(=O)CC[C@@H]1[C@@H](C/C=C\CCCC(=O)OC)[C@@H](O)C[C@H]1O` (stereo partly drawn) [Y-2, 13,14-dihydro-15-keto-16R,S-fluoro-PGF2α methyl ester], the activation at 3 µM in the assay on uterus (Table 2, Dose 3x10⁻⁶ M) came out at 70%. For the compound `CCCCCC(F)C(=O)CC[C@H]1[C@H](O)CC(=O)[C@@H]1C/C=C\CCCC(=O)OC` (stereo partly shown) [X-10], the activation at 10 µM in the assay with uterus (Table 1, Dose 1x10^-5 M) amounted to 80%. Turning to `CCCCC(F)C(=O)/C=C/[C@H]1[C@H](O)CC(=O)[C@@H]1C/C=C\CCCC(=O)O` (stereo partly shown) [X-11], the activation at 1 µM with uterus (Table 1) came out at 80%. `CCCCC(F)C(=O)CC[C@H]1[C@H](O)CC(=O)[C@@H]1C/C=C\CCCC(=O)OC` (stereo partly shown) [X-5, 13,14-dihydro-15-keto-16R,S-fluoro-PGE2 methyl ester]: the activation at 3 µM in the assay with uterus (Table 1, Dose 3x10^-6 M) was determined as 64%. In the case of `CCCCC(F)(F)C(=O)CC[C@H]1[C@H](O)CC(=O)[C@@H]1C/C=C\CCCC(=O)OC` [X-13], the activation at 1 µM in the assay with uterus (Table 1) came out at 63%. Regarding `CCCCC(F)C(=O)/C=C/[C@@H]1[C@@H](C/C=C\CCCC(=O)OC)[C@@H](O)C[C@H]1O` (stereo partly drawn) [Y-11, 15-keto-16R,S-fluoro-PGF2α methyl ester], in the assay with uterus (Table 2, Dose 1x10⁻⁵ M), the activation at 10 µM amounted to 95%. In the case of `CCCCC(F)C(=O)CC[C@H]1[C@H](O)CC(=O)[C@@H]1C/C=C\CCCC(=O)O` (stereo partly shown) [X-4, 13,14-dihydro-15-keto-16R,S-fluoro-PGE2], in the assay with uterus (Table 1), the activation at 1 µM was 87%. As for `CCCCCC(=O)CC[C@@H]1[C@@H](C/C=C\CCCC(=O)OC)[C@@H](O)C[C@H]1O` [13,14-dihydro-15-keto-PGF2α methyl ester], the intestinal contraction entry in the assay with ileum was “without intestinal contraction”. For `O=C(O)CCC/C=C\C[C@@H]1[C@@H](CCC(=O)COc2cccc(C(F)(F)F)c2)[C@H](O)C[C@@H]1O` [Y-12, 13,14-dihydro-15-keto-16-desbutyl-16-m-trifluoromethylphenoxy-PGF2α], the activation at 0.1 µM with uterus (Table 2, Dose 1x10⁻⁷ M) is 52%. Regarding `O=C(O)CCC/C=C\C[C@H]1C(=O)C[C@@H](O)[C@@H]1CCC(=O)COc1cccc(C(F)(F)F)c1` [X-15], in the assay with uterus (Table 1), the activation at 1 µM turned out to be 32%. On to `CCCCCCC(F)C(=O)CC[C@@H]1[C@@H](C/C=C\CCCC(=O)OC)[C@@H](O)C[C@H]1O` (stereo partly drawn) [Y-7, 13,14-dihydro-15-keto-20-ethyl-16R,S-fluoro-PGF2α methyl ester], for which, in the assay on uterus (Table 2, Dose 1x10⁻⁵ M), the activation at 10 µM was found to be 85%.

Values taken from EP0342003B1, “Use of 15-ketoprostaglandin E or F compounds for uterine contraction” (Kabushiki Kaisha Ueno Seiyaku Oyo Kenkyujo, priority 1988, dated 1989).
